| SMILES | melting point |
| --- | --- |
| Cc1cc(N2CCN(Cc3ccc(F)cc3)C2=O)sc1C(=O)NCc1cccnc1 | 119 to 120 °C |
| CC1C(=O)N(c2ccc3c(c2)OCO3)C(=S)N1c1ccc(Oc2ccccc2)cc1 (centres undefined) | 185 °C |
| Cc1ccc(Nc2c([N+](=O)[O-])ccc(Cl)c2C(=O)O)cc1 | 192 to 197 °C |
| CCc1cc(C(=O)c2ccccc2Cl)c(-n2c(CNC(=O)c3cc4ccccc4[nH]3)nnc2C(C)C)s1 | 209 to 211 °C |
| CN1CCC(c2cc(-c3ccncc3)c(-c3cccc(C(F)(F)F)c3)nn2)CC1 | 188 to 189 °C |
| CS(=O)(=O)Nc1cccc(Nc2nc(OC3CCCC3)c3nc[nH]c3n2)c1 | 137 to 140 °C |
| Cn1nc(-c2ncc(N)nc2-c2ccccc2)ccc1=O | 202 to 204 °C |
| CN(C)C=Nc1c(F)ccc(F)c1C#N | 56 to 60 °C |
| CC(C)(C)N(NC(=O)c1cnccn1)C(=O)c1ccccc1 | 181 to 183 °C |
| O=C(Cc1cccnc1)N1CCC(=C2c3ccc(Cl)cc3CCc3c(Cl)ccnc32)CC1 | 59.8 to 63.5 °C |
| OCC1CCCN1c1cc(N2CCOCC2)nc(-n2c(C(F)F)nc3c(O)cccc32)n1 (centres undefined) | 195 to 198 °C |
| CC=C(C)c1ccc(-c2ccccc2F)cc1 | 83 to 85 °C |
| CC(C)(C)OC(=O)N1CCC2(CC1)CSC1=C(O2)c2cc(-c3ccccc3C(F)(F)F)ccc2C(=O)C1=O | 223 to 225 °C |
| O=C1c2ccccc2C(=O)N1CCCC#Cc1ccccn1 | 127 to 129 °C |
| CCC12CCC3C4=C(CCC3C1CCC2O)CC(OC)=CC4 (centres undefined) | 98 to 104 °C |
| O=C(NNC(=O)c1ccncc1)Nc1cccc2c1C(=O)c1c-2n[nH]c1-c1ccc(N2CCNCC2)cc1 | 232 °C |
| COc1cc(OC)nc(NC(=O)NS(=O)(=O)c2cccc3cccnc23)n1 | 175 to 177 °C |
| O=C1c2ccc(Nc3ccc(F)cc3F)cc2CCc2cc(OCCCO)ccc21 | 154 °C |
| O=c1c2c(Cc3ccccc3OC(F)(F)F)n[nH]c2c2cccnc2n1-c1cccc(OC(F)(F)F)c1 | 233 to 236 °C |
| CCN(CC)CCNC(=O)c1cc(C#N)c(Cl)cc1OC | 104 to 105 °C |
| CCCCCC/C=C/CCCCCCCCCC(=O)Nc1nc(CC(=O)O)cs1 | 116 to 117 °C |
| COc1ccc2c(c1)Sc1cc(N)ccc1N2C | 142 to 143 °C |
| C=CS(=O)CCNC(=O)CCS(=O)(=O)C=C (centres undefined) | 93 °C |
| N#Cc1ccc(C2(CBr)OCCO2)cc1 | 92.4 °C |

| SMILES | melting point |
| --- | --- |
| O=C(NCC1(c2ccccc2)CCCCC1)Nc1cccc(Cl)c1Cl | 214 to 215 °C |
| O=C(O)CCCCCCCCCCn1nnnc1S | 95 to 98 °C |
| CCOC(=O)c1c(C)cc2c(c1C)c(=O)n(-c1ccccc1C(F)(F)F)c(=O)n2CCN1CCCCC1 | 144 to 145 °C |
| O=C(CC1COC1)N[C@H]1CC[C@H](CCN2CCC(c3cccc4c3CCO4)CC2)CC1 | 197 °C |
| CC/C=C/c1nc(Cl)c(C=O)n1Cc1ccc(-c2ccccc2C(=O)O)cc1 | 164 to 166 °C |
| COc1nc(C)cnc1NS(=O)(=O)c1cccnc1-c1ccc(N2CCOCC2)cc1 | 197 to 198 °C |
| COc1cn(-c2ccc(O)cc2F)nc(-c2ccnn2-c2ccccc2)c1=O | 223 to 224 °C |
| CCOC(=O)c1cc2ccc3c(c4ccccc4n3CC)c2n1C | 116 °C |
| Nc1nc(-c2cc(-c3c(F)cccc3Cl)no2)cs1 | 168 to 169 °C |
| CCCCN(CCCC)c1ccc(C=Cc2ccc(C=CC3=C(C#N)C(=C(C#N)C#N)OC3(c3ccccc3)C(F)(F)F)s2)c(OCc2ccccc2)c1 (centres undefined) | 196 to 197 °C |
| Cc1cc(C(=O)O)c(S(N)(=O)=O)s1 | 198 °C |
| Fc1nc(NCc2ccncc2)c2nc[nH]c2n1 | 200 to 202 °C |
| CCCc1c(OCCCOc2cccnc2CCC(=O)OC)ccc(C(C)=O)c1O | 85 to 87 °C |
| CCCCNC(=O)C(c1ccccc1)c1ccccc1 | 96 °C |
| COc1cc2c(nc1OC)c(-c1cc3c(Cl)c(F)cnc3[nH]1)cn2CCN1CCOCC1 | 206 °C |
| N#CC=C(Cc1ccc2c(c1)OCO2)Nc1ccccc1 | 150 to 151 °C |
| COc1cc2c(cc1[N+](=O)[O-])-c1c(-c3cccs3)c3c(n1CC2)C(=O)N(C(C)(C)C)CC3 | 226 to 227 °C |
| CN1CCC(c2c[nH]c3ccc(NS(=O)(=O)c4cccc5ccccc45)cc23)CC1 | 254 to 256 °C |
| O=C1c2ccccc2C(=O)N1CCSCc1nccc(NC(=S)NCC(F)(F)F)n1 | 178 to 179 °C |
| Cc1ccc2c(c1)N(C(=O)CN(C)C)c1ccccc1S(=O)(=O)N2C | 135 to 137 °C |
| O=C(NCCc1ccccc1CCl)c1ccc([N+](=O)[O-])cc1 | 126 °C |
| Cc1cc(NC(=O)N(C)C)cc(C)c1S(=O)(=O)C[N+](=O)[O-] | 205 to 206 °C |
| Cc1ccc(N2C(=O)NC(=O)C23CCNCC3)cc1 | 128 to 130 °C |
| CC12CCC(O)CC1CCC1C2CCC2(C)C(OCCO)CCC12 (centres undefined) | 181 to 183 °C |

Now from value to compound:

| melting point | SMILES |
| --- | --- |
| 65 to 67 °C | OCCCCC=CCCc1ccc(OCc2ccccc2)cc1 |
| 153 to 154 °C | Cc1ccc(-c2ccccc2C(=O)NCc2ccc([N+](=O)[O-])cc2)cc1 |
| 87 to 92 °C | CCCCCCCCCCCCSc1n[nH]c(-c2ccc(C(C)(C)C)cc2)n1 |
| 259 to 260 °C | CC(C)(C)CC(NC(=O)c1ccccc1)Nc1c(Nc2cccnc2Cl)c(=O)c1=O (centres undefined) |
| 99 to 101 °C | CCCCCCCC(=O)NC(=O)OCc1nc(C(C)C)c(Sc2cc(Cl)cc(Cl)c2)n1CC |
| 199 to 200 °C | CCN(c1cc(S(C)(=O)=O)ccc1C(=O)O)S(C)(=O)=O |
| > 300 °C | O=C(O)c1cc2c([N+](=O)[O-])c(O)c(O)cc2oc1=O |
| 91 to 92 °C | CCOC(=O)C1CCN(S(C)(=O)=O)CC1 |
| 192 to 193 °C | CN1c2ccccc2N=C(N2CCN(CCO)CC2)c2cscc21 |
| 120 to 124 °C | O=C(Cn1cc(-c2ccccc2)c(-c2ccccc2)n1)NCCN1CCCCC1 |
| 175 to 179 °C | CCSc1oc2ccccc2c(=S)c1C#N |
| 155 to 156 °C | CCOC(=O)c1ccc(-c2nc(COc3ccc(C=O)cc3OC)c(C)o2)s1 |
| 111 to 112 °C | COc1cc(Cn2cc(CCC(=O)O)c(-c3ccccc3)c2)cc(OCc2csc(-c3cnccn3)n2)c1 |
| 133 to 136 °C | CC(CCc1ccccc1)N(Cc1ccccc1)CC(O)c1ccc(N)c(S(N)(=O)=O)c1 (centres undefined) |
| 109 to 112 °C | CCCCCc1c(-c2ccc3cc(OCc4nnn[nH]4)ccc3c2)n(Cc2ccccc2)c2ccccc12 |
| 179 to 180 °C | CN1C(=O)CC[C@]2(C)c3ccc(Sc4nc5cc(Cl)ccc5s4)cc3CC[C@@H]12 |
| 162 to 163 °C | NCc1[nH]c2cc(Br)c(Cl)cc2c1-c1ccccc1 |
| 179 to 181 °C | CCOC(=O)c1c(CN(CC)CC)nc2sc3cnccc3c2c1-c1ccc(O)c(OC)c1 |
| 177 to 179 °C | O=C1O[C@@H]2C[C@@]1(O)C=C(OCc1ccc3sccc3c1)[C@H]2O |
| 122 to 123 °C | N=C(N)c1ccc2cc(OC(=O)CCCCCN)ccc2c1 |
| 162 to 164 °C | CN(C)C=C(C#N)C(=O)Nc1ccccc1 |
| 140 to 143 °C | Cc1cccc(C)c1N1C(=S)N(C)C(O)C1O (centres undefined) |
| 47 to 49 °C | COc1ccc(/C=C/c2c(Cl)cccc2Cl)cc1OC1CCCC1 |
| 183 to 185 °C | CC(=O)CCC(C)C1CC=C2C3=C(CCC21C)C1(C)CCC(O)C(C)(C)C1CC3 (centres undefined) |
| 119 to 127 °C | O=C(NCCO)c1ccc(-c2nn(Cc3ccccc3)c3ccccc23)o1 |
| 73 to 74 °C | COc1cccc(C2CCCCN(C)C2=O)c1 (centres undefined) |

| melting point | SMILES |
| --- | --- |
| 76 to 78 °C | CCCC(=O)c1cnc2c(OC)csc2c1Cl |
| 198 to 200 °C | CC(C)Oc1nc(-c2ccc(=O)n(C(C)C)n2)c(-c2ccccc2)nc1N |
| 90 to 92 °C | CCCCCCNC(=O)OCCCNC(=O)OC1CCN(C(=O)Oc2ccc(Oc3ccccc3)cc2)CC1 |
| 223 to 225 °C | COc1ccc2[nH]cc(S(=O)(=O)c3ccccc3)c2n1 |
| 142 to 143 °C | O=C1OC(=O)C2=C1CCOc1ccccc12 |
| 70 to 71 °C | CCSC(=O)OCOC(=O)COc1nc(Cl)c(Cl)cc1Cl |
| 202 °C | CC(=O)Nc1cccc(-c2nc3ncccc3o2)c1 |
| 174 to 175 °C | CC(CO)CCCC(C)C1CCC2C3CC=C4C(C)(C)C(O)CCC4(C)C3CCC12C (centres undefined) |
| 101 to 103 °C | COc1cc(C(=O)C(=O)N2C3CCCC2C(=O)N(CCCCc2ccccc2)C3=O)cc(OC)c1OC |
| 274 to 276 °C | CC(C)(C)c1ccc(C(=O)Nc2cn3cc(-n4cncn4)ccc3n2)cc1 |
| 273 to 275 °C | COC(=O)c1c(C(=O)O)cc2ccc3c(c2c1-c1ccc2c(c1)OCO2)OCO3 |
| 138 to 141 °C | CCOc1ccc(C(=O)CCC(=O)Nc2cn(Cc3ccccc3)nc2-c2ccccc2)cc1 |
| > 320 °C | CCc1cc(Nc2ccc(NC(=O)c3ccccc3S(=O)(=O)O)cc2)n2nccc2n1 |
| 205 °C | Cc1nc(NCCc2ccc(OCc3nn[nH]n3)cc2)c2cc(C)sc2n1 |
| 157 to 161 °C | O=C(c1ccco1)n1sc2ccccc2c1=O |
| 93 to 94 °C | CN(CCOc1ccc(C=CC=O)cc1F)c1ccccn1 |
| 82.3 °C | Cc1c(C(F)(F)F)cnn(-c2cc(OCC3CC3)c(Cl)cc2F)c1=O |
| 189 to 191 °C | CC1CC(C)CN(CCNC(=O)Nc2ccccc2)C1 (centres undefined) |
| 154 to 155 °C | Nc1ccc(C2(C(=O)O)CC2C(=O)O)cc1 (centres undefined) |
| 148 °C | Cc1cc(Cl)ccc1NC(=S)NC(=O)c1ccccc1 |
| 177 °C | O=C1O[C@@H](Cn2ccnn2)CN1c1ccc(-c2ccc(CO)nc2)c(F)c1 |
| 159 to 161 °C | COc1ccc2c(c1)CCC1C2CCC2(C)C(O)C(N)CC12 (centres undefined) |
| 93 to 97 °C | CSCC(=O)[C@H](Cc1cccs1)NC(=O)[C@H](CC(C)C)NC(=O)OCc1ccccc1 |
| 149 to 153 °C | O=C(Nc1cccc(C2CN3CCSC3=N2)c1)c1ccc(Br)nc1 (centres undefined) |
| 57 to 59 °C | C[Si](C)(C)C#Cc1ccc(I)cc1 |
